Measured values as given in US20090005369A1, “Oxazolidinone Compounds and Compositions and Methods Related Thereto” (priority 2004, published 2009).
In brackets after ≈: the same amount, converted by molar mass.

Experiments:
[1] = tested on: E. faecalis ATCC 29212 53; experiment: MIC by standard microdilution (NCCLS M7-A5); format: cell-based; conditions: Enterococcus faecalis, ATCC29212, read-out: In vitro activities against bacteria, MIC
[2] = tested on: Moraxella catarrhalis HCl-78 259/339; experiment: MIC by standard microdilution (NCCLS M7-A5); format: cell-based; conditions: HCL78259/339, read-out: In vitro activities against bacteria, MIC
[3] = molecular target: T1, human MAO-B (Homo sapiens, UniProt P27338); experiment: In vitro MAO-B enzymatic activity (kynuramine substrate, fluorescence); format: biochemical; conditions: membranes from SF9 cells, kynuramine 30 μM, read-out: Inhibitory activity of human MAO, Ki
T1 construct: purchased Gentest, BD, USA; host or cells: SF9 insect cells (membranes)
T1 sequence (P27338 1-520): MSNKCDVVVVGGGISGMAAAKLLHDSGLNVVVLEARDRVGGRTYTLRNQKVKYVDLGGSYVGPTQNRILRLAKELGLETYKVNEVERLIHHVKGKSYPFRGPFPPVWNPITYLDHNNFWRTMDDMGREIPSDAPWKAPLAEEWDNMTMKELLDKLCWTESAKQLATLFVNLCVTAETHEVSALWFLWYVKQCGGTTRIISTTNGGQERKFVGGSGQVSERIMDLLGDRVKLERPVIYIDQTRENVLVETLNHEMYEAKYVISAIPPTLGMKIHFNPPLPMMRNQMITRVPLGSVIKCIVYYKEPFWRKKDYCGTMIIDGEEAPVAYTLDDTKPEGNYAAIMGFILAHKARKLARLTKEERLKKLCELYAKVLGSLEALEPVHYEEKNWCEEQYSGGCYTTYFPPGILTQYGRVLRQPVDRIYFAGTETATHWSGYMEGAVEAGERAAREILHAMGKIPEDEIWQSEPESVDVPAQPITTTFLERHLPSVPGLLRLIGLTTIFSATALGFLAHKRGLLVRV

[4] = tested on: S. aureus ATCC 25923 MS 319; experiment: MIC by standard microdilution (NCCLS M7-A5); format: cell-based; conditions: Staphylococcus aureus, ATCC25923, read-out: In vitro activities against bacteria, MIC
[5] = molecular target: T2, human MAO-A (Homo sapiens, UniProt P21397); experiment: In vitro MAO-A enzymatic activity (kynuramine substrate, fluorescence); format: biochemical; conditions: membranes from SF9 cells, kynuramine 30 μM, read-out: Inhibitory activity of human MAO, Ki
T2 construct: purchased Gentest, BD, USA; host or cells: SF9 insect cells (membranes)
T2 sequence (P21397 1-527): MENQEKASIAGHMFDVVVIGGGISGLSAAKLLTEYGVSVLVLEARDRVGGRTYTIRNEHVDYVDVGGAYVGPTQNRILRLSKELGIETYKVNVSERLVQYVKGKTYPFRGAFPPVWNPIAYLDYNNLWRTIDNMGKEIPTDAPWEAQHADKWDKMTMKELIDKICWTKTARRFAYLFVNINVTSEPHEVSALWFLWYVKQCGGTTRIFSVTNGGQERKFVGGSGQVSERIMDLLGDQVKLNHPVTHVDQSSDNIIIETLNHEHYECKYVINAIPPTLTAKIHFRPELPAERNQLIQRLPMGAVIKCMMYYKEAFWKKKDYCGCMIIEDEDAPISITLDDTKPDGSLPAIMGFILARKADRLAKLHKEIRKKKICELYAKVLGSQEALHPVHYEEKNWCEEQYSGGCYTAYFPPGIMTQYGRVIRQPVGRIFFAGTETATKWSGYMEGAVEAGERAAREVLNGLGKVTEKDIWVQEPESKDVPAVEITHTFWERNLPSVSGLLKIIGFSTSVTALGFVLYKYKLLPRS

[6] = tested on: E. faecium ATCC 51559 MDR 312; experiment: MIC by standard microdilution (NCCLS M7-A5); format: cell-based; conditions: Enterococcus faecium, ATCC51559, read-out: In vitro activities against bacteria, MIC
[7] = tested on: S. pneumoniae ATCC 49619 PR 215; experiment: MIC by standard microdilution (NCCLS M7-A5); format: cell-based; conditions: Streptococcus pneumoniae, ATCC49619, read-out: In vitro activities against bacteria, MIC
[8] = tested on: E. faecalis ATCC 51575 MDR 311; experiment: MIC by standard microdilution (NCCLS M7-A5); format: cell-based; conditions: Enterococcus faecalis, ATCC51575, read-out: In vitro activities against bacteria, MIC
[9] = tested on: S. aureus ATCC 43300 MR 214; experiment: MIC by standard microdilution (NCCLS M7-A5); format: cell-based; conditions: Staphylococcus aureus, ATCC43300, read-out: In vitro activities against bacteria, MIC
[10] = tested on: S. epidermidis ATCC 12228 MR 11; experiment: microbe, parasite or virus in culture; format: cell-based; conditions: Staphylococcus epidermidis, ATCC12228, read-out: In vitro activities against bacteria, MIC
[11] = tested on: Moxarella, Pasteurella and Bacteroides spp.; conditions: background statement; cited from earlier work

| Compound | MIC [1] | MIC [2] | Ki [3] | MIC [4] | Ki [5] | MIC [6] | MIC [7] | MIC [8] | MIC [9] | MIC [10] | MICs [11] |
| --- | --- | --- | --- | --- | --- | --- | --- | --- | --- | --- | --- |
| O=C1O[C@@H](CNC(=S)c2ccco2)CN1c1ccc(N2CCOCC2)c(F)c1 [Example 2, N-[[(5S)-3-[3-fluoro-4-(4-morpholinyl)-phenyl]-2-oxo-5-oxazolidinyl]methyl]furan-2-yl-thioamide] | 2 µg/mL (≈ 4.93 µM) | 2 µg/mL (≈ 4.93 µM) | 5.3 µM | 8 µg/mL (≈ 19.7 µM) | 170 µM | 1 µg/mL (≈ 2.47 µM) | 2 µg/mL (≈ 4.93 µM) | 2 µg/mL (≈ 4.93 µM) | 2 µg/mL (≈ 4.93 µM) | – | – |
| O=C1O[C@@H](CNC(=S)c2ccoc2)CN1c1ccc(N2CCOCC2)c(F)c1 [Example 4, N-[[(5S)-3-[3-fluoro-4-(4-morpholinyl)-phenyl]-2-oxo-5-oxazolidinyl]methyl]furan-3-yl-thioamide] | 1 µg/mL (≈ 2.47 µM) | 1 µg/mL (≈ 2.47 µM) | 2.4 µM | 1 µg/mL (≈ 2.47 µM) | ≥ 250 µM | 2 µg/mL (≈ 4.93 µM) | 1 µg/mL (≈ 2.47 µM) | 1 µg/mL (≈ 2.47 µM) | 1 µg/mL (≈ 2.47 µM) | 1 µg/mL (≈ 2.47 µM) | – |
| CC(=S)N1CCN(c2ccc(N3C[C@H](CNC(=S)c4ccoc4)OC3=O)cc2F)CC1 [Example 7, N-[[(5S)-3-[3-fluoro-4-(4′-thioacetyl-4-piperazinyl)-phenyl]-2-oxo-5-oxazolidinyl]methyl]furan-3-yl-thioamide] | 0.13 µg/mL (≈ 0.281 µM) | 0.25 µg/mL (≈ 0.54 µM) | 2.8 µM | 0.5 µg/mL (≈ 1.08 µM) | ≥ 200 µM | 0.5 µg/mL (≈ 1.08 µM) | 0.5 µg/mL (≈ 1.08 µM) | 0.06 µg/mL (≈ 0.13 µM) | 0.5 µg/mL (≈ 1.08 µM) | 0.5 µg/mL (≈ 1.08 µM) | – |
| O=C1O[C@@H](CNC(=S)c2ccco2)CN1c1ccc(N2CCSCC2)c(F)c1 [Example 9, N-[[(5S)-3-[3-fluoro-4-(4-thiomorpholinyl)-phenyl]-2-oxo-5-oxazolidinyl]methyl]furan-2-yl-thioamide] | 2 µg/mL (≈ 4.74 µM) | – | 1 µM | 2 µg/mL (≈ 4.74 µM) | 47.5 µM | 8 µg/mL (≈ 19 µM) | 4 µg/mL (≈ 9.49 µM) | 2 µg/mL (≈ 4.74 µM) | 4 µg/mL (≈ 9.49 µM) | 4 µg/mL (≈ 9.49 µM) | – |
| O=C1O[C@@H](CNC(=S)c2ccoc2)CN1c1ccc(N2CCSCC2)c(F)c1 [Example 11, N-[[(5S)-3-[3-fluoro-4-(4-thiomorpholinyl)-phenyl]-2-oxo-5-oxazolidinyl]methyl]furan-3-yl-thioamide] | 1 µg/mL (≈ 2.37 µM) | 4 µg/mL (≈ 9.49 µM) | 0.6 µM | 2 µg/mL (≈ 4.74 µM) | ≥ 250 µM | 1 µg/mL (≈ 2.37 µM) | 1 µg/mL (≈ 2.37 µM) | 1 µg/mL (≈ 2.37 µM) | 1 µg/mL (≈ 2.37 µM) | 1 µg/mL (≈ 2.37 µM) | – |
| CC(=O)NC[C@H]1CN(c2ccc(N3CCOCC3)c(F)c2)C(=O)O1 [Linezolid, N-[[(5S)-3-[3-Fluoro-4-(4-morpholinyl)phenyl]-2-oxo-5-oxazolidinyl]methyl]acetamide, reference compound] | 0.5 µg/mL (≈ 1.48 µM) | 2 µg/mL (≈ 5.93 µM) | 0.48 µM | 2 µg/mL (≈ 5.93 µM) | 7 µM | 1 µg/mL (≈ 2.96 µM) | 2 µg/mL (≈ 5.93 µM) | 0.5 µg/mL (≈ 1.48 µM) | 1 µg/mL (≈ 2.96 µM) | 1 µg/mL (≈ 2.96 µM) | 2 to 8 µg/mL |
